Results as given in patent publication US20060121441A1, “Methods of determining the effect of an agent on diploid cells and/or on the pattern of expression of polypeptides expressed therewith” (priority 2002, published 2006).

Assays:
Type in all cases: cell-based, Aplysia californica
[1] = tested on: EB3 association with MTs; assay: Confocal imaging of EGFP-EB3 and microtubules in cultured neurons; settings: EGFP-EB3-expressing neurons
From the text: (§1) Cell culture—Neurons B1 and B2 from buccal ganglia, MCn neurons from the metacerebral ganglion, sensory neurons from the pleuropeadal ganglion and LUQs from the abdominal ganglion of Aplysia californica were isolated and maintained in culture as previously described [Schacher and Proshansky, (1983); Spira et al., (1993, 1996)].
Expression constructs—Enzymes were obtained from (New England Biolabs, Beverly, Mass., USA). Each of the chimeric cDNAs of EGFP-EB3, EGFP-p50 and EGFP-MLIV was subcloned into the pCS2+ expression vector as described below [Rupp (1994); Turner and Weintraub (1994)]. For EGFP-EB the pCS2+ vector was cut with XhoI and SnaB. The insert (EGFP-EB3) was cut with NotI, fill in and cut with SalI. For EGFP-P50 the pCS2+ vector was cut with XbaI and the insert was cut with NheI and SpeI.
In-vitro transcription—5′-capped and 3′-polyadenylated mRNA was in vitro transcribed using recombinant in vitro transcription system (Promega, Madison, Wis., USA,). 10 μg of NotI-linearized pCS2+ was used as a template to transcribe capped mRNA. The transcription reaction was effected with RiboMax-sp6 kit (Promrga-P1280). Briefly, a reaction mixture was prepared by mixing 8 μl Transcription ×5 Buffer, 8 μl rNTPs mix containing 25 mM CTP, ATP, UTP and 12 mM GTP, 4 μl of 15 mM Cap analog (Roche 85846029), 1 μl of 40 units rRnasin (Promega N251A), 4 μl enzyme mix and 1-2 μg linear plasmid. Final reaction volume was compensated to 40 μl. […]
Mag-fura-2 Ca^2+ imaging—To study the local effect of elevated calcium levels on the distribution of a given fluorescentlly labled protein ratio imaging of the free intracellular calcium concentration was effected by mag fura-2. […] The fluorescence microscopy system consisted of a Zeiss Axiovert microscope equipped with a 75 W Xenon arc lamp, a Zeiss 40×0.75 NA Plan-Neofluar objective, 340±5 nm and 380±5 nm bandpass excitation filters set in a computer-controlled, Lambda10 position filter changer (Sutter, Novato Calif.), a dichroic mirror with a cut-off threshold of 505 nm and a 545±25 nm band pass emission filter. […]

[2] = tested on: actin bundles at the leading edge of growth cones; assay: Confocal imaging of EGFP-actin bundles in growth cones of cultured neurons injected with mRNA encoding EGFP-actin
From the text: as §1
EGFP cDNA was amplified from pEGFP-N1 vector (Clontech, Palo-Alto, Calif., USA) by polymerase chain reaction (PCR) with two specific primers: 5′-GGCCATGGTGAGCAAGG-3′ and 5′-CTTGTACAGCTCGTCCATG-3′(Genset Oligos) (SEQ ID NOs: 1 and 2, respectively). The PCR product was digested with HindII and SmaI and subcloned into corresponding sites of Bluescript II SK (Stratagen, La Jolla, Calif.). Aplysia actin provided by Dr DesGrosiller (Montreal University, Canada) was amplified by PCR from Bluescript containing the actin cDNA using two specific primers: 5′-ATGTGTGACGACGATGTT-3′ and 5′-TTAGAAGCACTTGCGGTCG-3′ (SEQ ID NOs: 3 and 4, respectively) with SmaI and XbaI restriction sites at their 5′ ends. Following digestion, the PCR product was subcloned in-frame with EGFP into the previously prepared pBluescript-EGFP vector linearized with SmaI and XbaI. The EGFP-Actin fragment was then cut out from pBluescript with ClaI and XbaI and subcloned into corresponding sites of pCS2+ vector [Rupp (1994); Turner and Weintraub (1994) supra]. […]

[3] = tested on: microtubules; assay: Confocal imaging of EGFP-tubulin labelled microtubules in axotomy-induced growth cone of cultured neurons
Procedure: mRNA microinjection—mRNA was injected into the cytoplasm of Aplysia neurons bathed in ASW 8-48 hours following plating. 0.5-5 μg/μl mRNA in 80 mM KCl was used for injection. Injection was performed by pressure using Medical System Corp microinjector inserted into the cell body under visual control. Approximately up to 10% of the cell's body volume was injected. […] Good penetration was indicated by a resting potential of >−35 mV and measuring a typical input resistance. At the end of the injection, the micropipette tip was pooled out gently of the neuron. Cells were imaged for protein expression 12-48 hours following injection.
Axotomy—Axonal transection was performed by applying pressure on the axon with the thin shaft of a micropipette under visual control, as previously described [Spira et al., 1993, 1996; Ziv and Spira, (1993)].

## CCCC[C@@H](C=O)NC(=O)[C@H](CC(C)C)NC(=O)OCc1ccccc1 [calpeptin]
[1]
  effect on MTs and EB3 association with MTs: induces milled dissociation of EB3 from the MTs

## C=C1[C@@H](C)[C@H]2[C@H](Cc3ccccc3)NC(=O)[C@]23OC(=O)/C=C/[C@H](O)CCC[C@@H](C)C/C=C/[C@H]3[C@@H]1O [cytochalasin B]
[2]; cultured B1 neuron, nine minutes following bath application of 2 mM
  effect on EGFP labeled actin bundles at the leading edge of growth cones: actin bundles disassembly and the formation of small actin aggregates within the collapsed growth cones and the axoplasm
[2]; growth cone formed after axotomy, FIGS. 3a-b
  depolymerisation of fluorescent actin bundles after application: depolymerised within minutes

## C[C@H](CCC(=O)O)C[C@H](C)C[C@H](C)C(=O)/C=C(\O)[C@H](C)C[C@H](C)C/C=C/[C@@H](C)[C@@H](O)[C@@H](C)[C@@H](O)C[C@@H]1CC[C@@](C)([C@H]2CC[C@@](C)([C@@H](C)O)O2)O1 [ionomycin]
[1]; local application
  mimicry of the axotomy-induced MT depolymerization/repolymerization and vesicle trap process by local elevation of [Ca2+]i: able to mimic the process

## COC(=O)Nc1nc2ccc(C(=O)c3cccs3)cc2[nH]1 [nocodazole]
[3]; bath application 5 mM for 5 min
  effect on EGFP-tubulin microtubules in growth cone lamellipodium: depolymerisation of most microtubules
[3]; cultured B1 neuron, twenty three minutes following bath application of 5 mM
  effect on EGFP labelled microtubules within growth cone: microtubules depolymerise
[1]
  effect on MTs and EB3 association with MTs: induces MTs deplymerization and dissociation of EB3 from the MTs
